Measured values as given in patent US20030133905A1, “Composition for treating contact lenses in the eye” (priority 2001, published 2003).

Target: T1, hen egg lysozyme (Gallus gallus, UniProt P00698)
T1 construct: 1 mg/ml of hen egg lysozyme; from tissue; host or cells: hen egg
Assay: Stabilization of lysozyme against heat denaturation, read out as lysis of M. luteus suspension (optical density at 450 nm)
Type: biochemical
Details: saline with 20 mM buffering agent
Description: Each solution included saline and 20 mM of buffering agent as identified in Table 1 below. To each test solution was added 1 mg/ml of hen egg lysozyme as well as a phosphate buffered saline (PBS) control. The test solutions were mixed slowly with a stir bar until the lysozyme was incorporated into the solutions. Five ml of each lysozyme-containing test solution was retained as the unheated control. The remaining 5 ml of each lysozyme-containing test solution were placed in glass lens vials, capped with silicone stoppers and incubated in a shaking water bath at 80° C., 40 revolutions per minute (rpm) for 1 hour. These heating conditions are sufficient to denature the lysozyme, absent a stabilization effect provided by the buffering agents. The vials were allowed to come to ambient temperature before testing. A 0.00025g/ml suspension of M. luteus was prepared from lyophilized cells in PBS. The suspension was continually mixed on a stir plate during the testing period to prevent the suspension from settling. For each set of test solutions, the following were tested (sample): a heated lysozyme-containing test solution (“lysozyme+heat”); an unheated lysozyme-containing test solution (“lysozyme/no heat”); and a test solution without lysozyme (“no lysozyme”). One ml of each sample was placed into a glass test tube to which 9 ml of M. luteus suspension was added and vortexed. A 1-ml sub-sample was placed into a disposable cuvette and evaluated on a UV-vis spectrophotometer at 450 nm. This procedure was performed for each sample at 0, 5 and 10 minutes. Each of the solutions was evaluated in triplicate. Each of the three optical density measurements from the triplicate samples was averaged. […] As shown by the test data set forth below in the Table 3, the lens drop solutions containing tromethamine were very effective at stabilizing the protein against denaturation.

[1] = lysozyme + heat (80° C., 1 hour), 1 mg/ml lysozyme
[2] = lysozyme/no heat, 1 mg/ml lysozyme, M. luteus suspension

T1 sequence (P00698 19-147): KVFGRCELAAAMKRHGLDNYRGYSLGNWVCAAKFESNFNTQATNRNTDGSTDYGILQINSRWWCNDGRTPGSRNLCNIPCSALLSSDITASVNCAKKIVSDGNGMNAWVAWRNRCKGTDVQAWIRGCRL

Q: Which “optical density at 450 nm, Time 0 Min” value [1] does the source give for Phosphate here?
A: The value was 0.861.

Q: And the “optical density at 450 nm, Time 5 Min” value [1]?
A: The value was 0.858.

Q: What about the “optical density at 450 nm, Time 10 Min” value [1] of the same compound?
A: Its value is 0.852.

Q: What about the “optical density at 450 nm, Time 0 Min” value [2] of the same compound?
A: Its value is 0.634.

Q: What about the “optical density at 450 nm, Time 5 Min” value [2] of the same compound?
A: The value was 0.052.

Q: And the “optical density at 450 nm, Time 10 Min” value [2]?
A: Its value is 0.029.

Q: And the “optical density at 450 nm, Time 0 Min” value (no lysozyme)?
A: The value was 0.856.

Q: What about the “optical density at 450 nm, Time 5 Min” value (no lysozyme) of the same compound?
A: Its value is 0.852.

Q: And the “optical density at 450 nm, Time 10 Min” value (no lysozyme)?
A: The value was 0.854.

Q: Which results are given for `NC(CO)(CO)CO` [Tris, 2-amino-2-hydroxymethyl-1,3-propanediol]?
A: optical density at 450 nm, Time 0 Min [1]: 0.810; optical density at 450 nm, Time 5 Min [1]: 0.154; optical density at 450 nm, Time 10 Min [1]: 0.117; optical density at 450 nm, Time 0 Min [2]: 0.654; optical density at 450 nm, Time 5 Min [2]: 0.048; optical density at 450 nm, Time 10 Min [2]: 0.028; optical density at 450 nm, Time 0 Min (no lysozyme): 0.859; optical density at 450 nm, Time 5 Min (no lysozyme): 0.854; optical density at 450 nm, Time 10 Min (no lysozyme): 0.854

Q: Which results are given for `O=C(O)CC(O)(CC(=O)O)C(=O)O` [Citrate]?
A: optical density at 450 nm, Time 0 Min [1]: 0.877; optical density at 450 nm, Time 5 Min [1]: 0.851; optical density at 450 nm, Time 10 Min [1]: 0.785; optical density at 450 nm, Time 0 Min [2]: 0.654; optical density at 450 nm, Time 5 Min [2]: 0.049; optical density at 450 nm, Time 10 Min [2]: 0.030; optical density at 450 nm, Time 0 Min (no lysozyme): 0.857; optical density at 450 nm, Time 5 Min (no lysozyme): 0.850; optical density at 450 nm, Time 10 Min (no lysozyme): 0.850

Q: What does the source list for Borate?
A: optical density at 450 nm, Time 0 Min [1]: 0.872; optical density at 450 nm, Time 5 Min [1]: 0.681; optical density at 450 nm, Time 10 Min [1]: 0.390; optical density at 450 nm, Time 0 Min [2]: 0.619; optical density at 450 nm, Time 5 Min [2]: 0.053; optical density at 450 nm, Time 10 Min [2]: 0.034; optical density at 450 nm, Time 0 Min (no lysozyme): 0.853; optical density at 450 nm, Time 5 Min (no lysozyme): 0.853; optical density at 450 nm, Time 10 Min (no lysozyme): 0.854
